Results published in patent US8304182B2, “Methods of identifying anti-cancer agents and uses thereof” (The Trustees of the University of Pennsylvania, priority 2003, dated 2012).

Legend:
bax^−/−bak^−/− MEFs = assay type: cell-based, mouse
[1] = assay type: cell-based, mouse
ATP = assay: Determination of cellular ATP; assay type: cell-based, mouse
p53^−/− MEFs = assay type: cell-based, mouse
[2] = system: Mouse bone marrow derived macrophages; assay type: cell-based

## O=c1[nH]ccc2c(O)cccc12 [DHIQ]
bax^−/−bak^−/− MEFs
  block of MNNG-induced cell death: fully
parp-1^−/− MEFs
  effect on MNNG-induced cell death rate: did not affect the cell death rate

## O=C1NCCc2c(OCCCCN3CCCCC3)cccc21 [DPQ]
[1]
  prevention of MNNG-induced NAD depletion: could be prevented
ATP
  prevention of MNNG-induced ATP depletion: could be prevented

## COc1cc([C@@H]2c3cc4c(cc3[C@@H](O[C@@H]3O[C@@H]5CO[C@@H](C)O[C@H]5[C@H](O)[C@H]3O)[C@H]3COC(=O)[C@H]23)OCO4)cc(OC)c1O [etoposide]
bax^−/−bak^−/− MEFs
  cell death (cell survival by PI exclusion): resistant
p53^−/− MEFs
  cell death (cell survival by PI exclusion): resistant

## CN[C@@H]1C[C@H]2O[C@@](C)([C@@H]1OC)n1c3ccccc3c3c4c(c5c6ccccc6n2c5c31)C(=O)NC4 [staurosporine]
bax^−/−bak^−/− MEFs
  cell death: no cell death was observed
[2]
  TNFα production by macrophages: failed to do so
parp-1^−/− MEFs; parp-1^−/− cells, staurosporine, FIG. 3F
  cell death: killed
p53^−/− MEFs
  cell death (cell survival by PI exclusion): induced cell death
